Assay results as given in the supplement of paper PMC10307832.

How the values were obtained:
Experiment in all cases: relative viability (nuclei count vs DMSO), 5 days (fraction); higher = more cells survive
RERF-LC-KJ = test system: RERF-LC-KJ
In short: (§1)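 Lung cancer cell lines, seeded in 1536-well plates, were treated the following day by pin tool with a single drug or with five library-drug doses (not always all listed) in √10 steps on top of a fixed anchor-drug dose. Cells were fixed and nuclei stained in one step after 5 days, and nuclei were counted. Relative viability is the nuclei count for treated wells divided by that for vehicle wells, reported as medians of duplicate plates.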

SW 900 = test system: SW 900
In short: as §1

ChaGo-K-1 = test system: ChaGo-K-1
In short: as §1

HCC-827 = test system: HCC-827
In short: as §1

LU99A = test system: LU99A
In short: as §1

NCI-H3122 = test system: NCI-H3122
In short: as §1

NCI-H2126 = test system: NCI-H2126
In short: as §1

NCI-H2405 = test system: NCI-H2405
In short: as §1

LOU-NH91 = test system: LOU-NH91
In short: as §1

NCI-H1666 = test system: NCI-H1666
In short: as §1

NCI-H1975 = test system: NCI-H1975
In short: as §1

SK-LU-1 = test system: SK-LU-1
In short: as §1

EMC-BAC-2 = test system: EMC-BAC-2
In short: as §1

NCI-H2085 = test system: NCI-H2085
In short: as §1

NCI-H23 = test system: NCI-H23
In short: as §1

HCC-366 = test system: HCC-366
In short: as §1

LXF-289 = test system: LXF-289
In short: as §1

SW 1573 = test system: SW 1573
In short: as §1

LK-2 = test system: LK-2
In short: as §1

EPLC-272H = test system: EPLC-272H
In short: as §1

HCC-78 = test system: HCC-78
In short: as §1

NCI-H1563 = test system: NCI-H1563
In short: as §1

LCLC-103H = test system: LCLC-103H
In short: as §1

HCC-44 = test system: HCC-44
In short: as §1

## Clc1ccc(Nc2nnc(Cc3ccncc3)c3ccccc23)cc1 [Vatalanib] + Nc1nc2[nH]cc(CCc3ccc(C(=O)N[C@@H](CCC(=O)O)C(=O)O)cc3)c2c(=O)[nH]1 [Pemetrexed] (partner 0.2 µM)
RERF-LC-KJ; first compound 0.04 µM
  relative viability: 0.489
RERF-LC-KJ; first compound 0.1265 µM
  relative viability: 0.476
RERF-LC-KJ; first compound 0.4 µM
  relative viability: 0.484
RERF-LC-KJ; first compound 1.265 µM
  relative viability: 0.502
RERF-LC-KJ; first compound 4 µM
  relative viability: 0.458
SW 900; first compound 0.04 µM
  relative viability: 0.476
SW 900; first compound 0.1265 µM
  relative viability: 0.471
SW 900; first compound 0.4 µM
  relative viability: 0.467
SW 900; first compound 1.265 µM
  relative viability: 0.478
SW 900; first compound 4 µM
  relative viability: 0.464
ChaGo-K-1; first compound 0.04 µM
  relative viability: 0.263
ChaGo-K-1; first compound 0.1265 µM
  relative viability: 0.294
ChaGo-K-1; first compound 0.4 µM
  relative viability: 0.265
ChaGo-K-1; first compound 1.265 µM
  relative viability: 0.258
ChaGo-K-1; first compound 4 µM
  relative viability: 0.26
HCC-827; first compound 0.04 µM
  relative viability: 0.241
HCC-827; first compound 0.1265 µM
  relative viability: 0.232
HCC-827; first compound 1.265 µM
  relative viability: 0.263
HCC-827; first compound 4 µM
  relative viability: 0.231
LU99A; first compound 0.04 µM
  relative viability: 0.182
LU99A; first compound 0.1265 µM
  relative viability: 0.162
LU99A; first compound 0.4 µM
  relative viability: 0.17
LU99A; first compound 1.265 µM
  relative viability: 0.189
LU99A; first compound 4 µM
  relative viability: 0.162
NCI-H3122; first compound 0.04 µM
  relative viability: 0.195
NCI-H3122; first compound 0.1265 µM
  relative viability: 0.19
NCI-H3122; first compound 0.4 µM
  relative viability: 0.191
NCI-H3122; first compound 1.265 µM
  relative viability: 0.199
NCI-H3122; first compound 4 µM
  relative viability: 0.189
NCI-H2126; first compound 0.04 µM
  relative viability: 0.68
NCI-H2126; first compound 0.1265 µM
  relative viability: 0.668
NCI-H2126; first compound 0.4 µM
  relative viability: 0.731
NCI-H2126; first compound 1.265 µM
  relative viability: 0.592
NCI-H2126; first compound 4 µM
  relative viability: 0.602
NCI-H2405; first compound 0.04 µM
  relative viability: 1.04
NCI-H2405; first compound 0.1265 µM
  relative viability: 1.04
NCI-H2405; first compound 0.4 µM
  relative viability: 0.981
NCI-H2405; first compound 4 µM
  relative viability: 1.01
LOU-NH91; first compound 0.04 µM
  relative viability: 0.417
LOU-NH91; first compound 0.1265 µM
  relative viability: 0.378
LOU-NH91; first compound 0.4 µM
  relative viability: 0.373
LOU-NH91; first compound 1.265 µM
  relative viability: 0.366
LOU-NH91; first compound 4 µM
  relative viability: 0.361
NCI-H1666; first compound 0.04 µM
  relative viability: 0.845
NCI-H1666; first compound 0.1265 µM
  relative viability: 0.844
NCI-H1666; first compound 0.4 µM
  relative viability: 0.843
NCI-H1666; first compound 1.265 µM
  relative viability: 0.799
NCI-H1666; first compound 4 µM
  relative viability: 0.901
NCI-H1975; first compound 0.04 µM
  relative viability: 0.265
NCI-H1975; first compound 0.1265 µM
  relative viability: 0.305
NCI-H1975; first compound 0.4 µM
  relative viability: 0.297
NCI-H1975; first compound 1.265 µM
  relative viability: 0.28
NCI-H1975; first compound 4 µM
  relative viability: 0.286
SK-LU-1; first compound 0.04 µM
  relative viability: 0.966
SK-LU-1; first compound 0.1265 µM
  relative viability: 0.881
SK-LU-1; first compound 0.4 µM
  relative viability: 1.14
SK-LU-1; first compound 1.265 µM
  relative viability: 0.901
SK-LU-1; first compound 4 µM
  relative viability: 0.928
EMC-BAC-2; first compound 0.04 µM
  relative viability: 0.452
EMC-BAC-2; first compound 0.1265 µM
  relative viability: 0.427
EMC-BAC-2; first compound 0.4 µM
  relative viability: 0.456
EMC-BAC-2; first compound 4 µM
  relative viability: 0.463
NCI-H2085; first compound 0.04 µM
  relative viability: 0.844
NCI-H2085; first compound 0.1265 µM
  relative viability: 0.842
NCI-H2085; first compound 0.4 µM
  relative viability: 0.976
NCI-H2085; first compound 1.265 µM
  relative viability: 0.892
NCI-H2085; first compound 4 µM
  relative viability: 0.821
NCI-H23; first compound 0.04 µM
  relative viability: 0.579
NCI-H23; first compound 0.1265 µM
  relative viability: 0.654
NCI-H23; first compound 0.4 µM
  relative viability: 0.728
NCI-H23; first compound 1.265 µM
  relative viability: 0.59
NCI-H23; first compound 4 µM
  relative viability: 0.544
HCC-366; first compound 0.04 µM
  relative viability: 0.148
HCC-366; first compound 0.1265 µM
  relative viability: 0.133
HCC-366; first compound 0.4 µM
  relative viability: 0.185
HCC-366; first compound 1.265 µM
  relative viability: 0.162
HCC-366; first compound 4 µM
  relative viability: 0.148
LXF-289; first compound 0.04 µM
  relative viability: 0.887
LXF-289; first compound 0.1265 µM
  relative viability: 0.879
LXF-289; first compound 0.4 µM
  relative viability: 0.955
LXF-289; first compound 1.265 µM
  relative viability: 0.908
LXF-289; first compound 4 µM
  relative viability: 0.822
SW 1573; first compound 0.1265 µM
  relative viability: 0.72
SW 1573; first compound 0.4 µM
  relative viability: 0.975
SW 1573; first compound 1.265 µM
  relative viability: 0.771
SW 1573; first compound 4 µM
  relative viability: 0.794
LK-2; first compound 0.04 µM
  relative viability: 0.241
LK-2; first compound 0.1265 µM
  relative viability: 0.252
LK-2; first compound 0.4 µM
  relative viability: 0.319
LK-2; first compound 1.265 µM
  relative viability: 0.235
LK-2; first compound 4 µM
  relative viability: 0.207
EPLC-272H; first compound 0.04 µM
  relative viability: 0.349
EPLC-272H; first compound 0.1265 µM
  relative viability: 0.334
EPLC-272H; first compound 0.4 µM
  relative viability: 0.781
EPLC-272H; first compound 1.265 µM
  relative viability: 0.295
EPLC-272H; first compound 4 µM
  relative viability: 0.376
HCC-78; first compound 0.04 µM
  relative viability: 0.924
HCC-78; first compound 0.1265 µM
  relative viability: 0.981
HCC-78; first compound 0.4 µM
  relative viability: 0.881
HCC-78; first compound 1.265 µM
  relative viability: 0.947
HCC-78; first compound 4 µM
  relative viability: 0.906
NCI-H1563; first compound 0.04 µM
  relative viability: 0.804
NCI-H1563; first compound 0.1265 µM
  relative viability: 0.772
NCI-H1563; first compound 0.4 µM
  relative viability: 0.857
NCI-H1563; first compound 1.265 µM
  relative viability: 0.758
NCI-H1563; first compound 4 µM
  relative viability: 0.77
LCLC-103H; first compound 0.04 µM
  relative viability: 0.343
LCLC-103H; first compound 0.1265 µM
  relative viability: 0.428
LCLC-103H; first compound 0.4 µM
  relative viability: 0.449
LCLC-103H; first compound 1.265 µM
  relative viability: 0.487
LCLC-103H; first compound 4 µM
  relative viability: 0.453
HCC-44; first compound 0.04 µM
  relative viability: 0.593
HCC-44; first compound 0.1265 µM
  relative viability: 0.61
HCC-44; first compound 0.4 µM
  relative viability: 0.673
HCC-44; first compound 1.265 µM
  relative viability: 0.638
HCC-44; first compound 4 µM
  relative viability: 0.683
